In one assay the test system is TNF-α. Description: Inhibition of TNF-α secretion in LPS stimulated peripheral blood mononuclear cells. The assay is classed as cell-based. The note with it: PBMC; LPS stimulated human peripheral blood mononuclear cells, 18 hours, ELISA; read-out: The median inhibition concentration (IC50, nM) of TNF-α. How it is done: (§1) To study the effect of compounds of the present invention in vitro, the inhibition of IL-1β and TNF-α secretion was determined using the following procedure:
(§2) Cytokine production was measured in the media from lipopolysaccharide (LPS) stimulated peripheral blood mononuclear cells. The mononuclear cells were isolated from human peripheral blood by Lymphoprep® (Nycomed, Norway) fractionation and suspended in RPMI 1640 (growth medium) with foetal calf serum (FCS, 2%), at a concentration of 5×10^5 cells/ml. The cells were incubated in 24-well tissue culture plates in 1 ml aliquots. Test compounds were dissolved in dimethylsulfoxide (DMSO, 10 mM) and were diluted with the medium. Compounds were added to the cells for 30 minutes, then LPS ([…] final concentration) was added. The plates were incubated for 18 hours, and the concentration of IL-β and TNF-α in the medium was determined by enzyme-linked immunosorbent assays. The median inhibitory concentrations (IC50) of the compounds were calculated.
Background: ELISA stands for enzyme-linked immunosorbent assay.

The test system of another assay is IL-1β. Nature of the assay: Inhibition of IL-1β secretion in LPS stimulated peripheral blood mononuclear cells. The format is cell-based. The note with it: PBMC; LPS stimulated human peripheral blood mononuclear cells, 18 hours, ELISA; read-out: The median inhibition concentration (IC50, nM) of IL-1β. How it is done:
as §1, §2

For assay [1], the system named is LPS induced TNF-α response. Nature of the assay: In vivo screening model of LPS induced TNF-α response in mice. Particulars: Mus musculus, mice (C3H/HeN), dosed 1 hour prior to LPS, plasma TNF-α 80-90 minutes after LPS, vs LPS treated control group, read-out: In vivo inhibition of LPS induced TNF-α production (in %). How it is done: In Vivo Screening Model of LPS Induced TNF-α Response in Mice
To study the effect of compounds of the present invention in vivo, an in vivo screening model of LPS induced TNF-α response in mice was set up as follows: Groups of 6 mice (C3H/HeN, female, about 8 weeks (20 g), Bomholtgaard) were dosed with test compounds in suspension vehicle 1 hour prior to LPS administration (LPS from E. coli 055:B5, L-4005, Sigma). At time 0, the mice were dosed ip with 1.0 mg LPS/kg. After anesthetization with Hypnorm/Dormicum, the mice were bled from the periorbital venous plexus 80-90 minutes after LPS administration. The blood samples were sampled in EDTA stabilised tubes and centrifuged at 4000 rpm for 10 minutes at 4° C. The plasma level of TNF-α was analysed by ELISA. Compound 156 of WO 98/32730 was used as reference compound. The plasma level of TNF-α was determined using a sandwich ELISA. Microtiter plates were coated with a monoclonal antibody against mouse TNF-α, washed and blocked with a casein buffer. Samples of mouse TNF-α recombinant standards were added to the wells of the microtiter plates and incubated. All standards were tested in triplicate, all plasma samples in single. After sample and standard incubation, the plates were washed and incubated with biotinylated polyclonal secondary antibody against mouse TNF-α and washed. Enzyme conjugate was added to all wells and incubated. Substrate was added and the enzyme/substrate reaction stopped after 15 minutes at room temperature with 1M H2SO4. The colour development (OD) was measured at 450 nm on an ELISA reader and the background OD at 620 nm was subtracted. […] The results of the tested compounds are indicated as a percentage inhibition compared to an LPS treated control group. Compounds were tested at 10 mg/kg. The Mann-Whitney test was used to compare drug treated groups to the LPS treated control group (p<0.05).

IC50 and inhibition data for 25 compounds are collected here from patent publication US7977387B2, “Aminobenzophenone compounds” (Leo Pharma A/S, priority 2003, dated 2011).

The structures appear in SMILES notation.

What is called inhibition is the drop in the measured response relative to a control, in per cent. On to `Cc1ccc(C(=O)NCCF)cc1C(=O)c1ccc(Nc2ccc(F)cc2F)cc1` [Compound 163, 3-[4-(2,4-Difluoro-phenylamino)-benzoyl]-N-(2-fluoro-ethyl)-4-methyl-benzamide], for which the IC50 in the assay on TNF-α and in the assay on IL-1β was 2.5 nM each time. Besides, in assay [1], the inhibition at 10 mg/kg was 66%.

Consider `Cc1ccc(C(=O)NCC(F)(F)F)cc1C(=O)c1ccc(Nc2ccc(F)cc2F)cc1Cl` [Compound 148, 3-[2-Chloro-4-(2,4-difluoro-phenylamino)-benzoyl]-4-methyl-N-(2,2,2-trifluoro-ethyl) benzamide], for which the IC50 was 0.2 nM with TNF-α and 0.6 nM in the assay on IL-1β. In addition, the inhibition at 10 mg/kg in assay [1] was found to be 71%.

As to `Cc1ccc(C(=O)NCC(F)F)cc1C(=O)c1ccc(Nc2ccc(F)cc2F)cc1Cl` [Compound 166], the IC50 was determined as 0.4 nM in the assay with TNF-α and 0.5 nM with IL-1β. The inhibition at 10 mg/kg in assay [1] amounted to 83%.

With `COc1ccc(C(=O)NCCF)cc1C(=O)c1ccc(Nc2c(F)cccc2F)cc1Cl` [Compound 174], the IC50 in the assay with TNF-α stood at 2 nM; with IL-1β it was 3.2 nM. Also, in assay [1], the inhibition at 10 mg/kg came out at 64%.

As to `Cc1ccc(C(=O)O)cc1C(=O)c1ccc(Nc2ccc(F)cc2F)cc1Cl` [Compound 424, 3-[2-Chloro-4-(2,4-difluorophenylamino)benzoyl]-4-methylbenzoic acid], the inhibition at 10 mg/kg in assay [1] was 44%.

As to `Cc1ccc(NC(=O)CCN2CCOCC2)cc1C(=O)c1ccc(Nc2ccc(F)cc2F)cc1Cl` [Compound 244, N-{3-[2-Chloro-4-(2,4-difluoro-phenylamino)-benzoyl]-4-methyl-phenyl}-3-morpholin-4-yl-propionamide], the results for the IC50 in the assay with TNF-α and in the assay with IL-1β were 0.5 nM and 1.3 nM, respectively.

Take `Cc1ccc(NC(=O)NC(C)C)cc1C(=O)c1ccc(Nc2ccc(F)cc2F)cc1Cl` [Compound 275, 1-{3-[2-Chloro-4-(2,4-difluoro-phenylamino)-benzoyl]-4-methyl-phenyl}-3-isopropyl-urea]: the IC50 in the assay with TNF-α came to 0.3 nM; in the assay with IL-1β, 5 nM.

For the compound `COc1ccc(C(=O)NCCF)cc1C(=O)c1ccc(Nc2ccc(F)cc2)cc1Cl` [Compound 197, 3-[2-Chloro-4-(4-fluoro-phenylamino)-benzoyl]-N-(2-fluoro-ethyl)-4-methoxy-benzamide], the IC50 with TNF-α is 1.8 nM; with IL-1β, 3.2 nM.

`COCCNC(=O)c1ccc(C)c(C(=O)c2ccc(Nc3ccc(F)cc3C)cc2Cl)c1` [Compound 106, 3-[2-Chloro-4-(4-fluoro-2-methyl-phenylamino)benzoyl]-N-(2-methoxyethyl)-4-methylbenzamide]: the IC50 in the assay on TNF-α was determined as 1 nM; in the assay on IL-1β it was 2 nM.

`Cc1ccc(NC(=O)NCCc2ccccc2)cc1C(=O)c1ccc(Nc2ccc(F)cc2F)cc1Cl` [Compound 272, 1-{3-[2-Chloro-4-(2,4-difluoro-phenylamino)-benzoyl]-4-methyl-phenyl}-3-phenethyl-urea]: the IC50 with TNF-α stood at 1.4 nM; in the assay on IL-1β, 3.2 nM.

Regarding `Cc1ccccc1C(=O)c1ccc(Nc2ccccc2N)cc1Cl` [Ref. comp. a, 4-(2-aminophenylamino)-2-chloro-2′-methylbenzophenone, reference compound], the inhibition at 10 mg/kg in assay [1] was found to be 23%.

Take `CCOC(=O)CNC(=O)CNC(=O)c1ccc(C)c(C(=O)c2ccc(Nc3ccc(Cl)cc3F)cc2Cl)c1` [Compound 122, (2-{3-[2-Chloro-4-(4-chloro-2-fluoro-phenylamino)-benzoyl]-4-methyl-benzoylamino}-acetylamino)-acetic acid ethyl ester]: the results for the IC50 with TNF-α and with IL-1β were 0.2 nM and 0.5 nM, respectively.

Consider `CCCCNC(=O)Nc1ccc(C)c(C(=O)c2ccc(Nc3ccc(F)cc3F)cc2Cl)c1` [Compound 271, 1-Butyl-3-{3-[2-chloro-4-(2,4-difluoro-phenylamino)-benzoyl]-4-methyl-phenyl}-urea], for which the IC50 in the assay on TNF-α is 0.4 nM; with IL-1β it was 1 nM.

Take `CCOC(=O)CNC(=O)CNC(=O)c1ccc(OC)c(C(=O)c2ccc(Nc3c(F)cccc3F)cc2Cl)c1` [Compound 183, (2-{3-[2-Chloro-4-(2,6-difluoro-phenylamino)-benzoyl]-4-methoxy-benzoylamino}-acetylamino)-acetic acid ethyl ester]: the figures for the IC50 in the assay with TNF-α and in the assay with IL-1β were 0.7 nM and 2 nM, respectively.

Turning to `COc1cccc(NC(=O)Nc2ccc(C)c(C(=O)c3ccc(Nc4ccc(F)cc4F)cc3Cl)c2)c1` [Compound 262, 1-{3-[2-Chloro-4-(2,4-difluoro-phenylamino)-benzoyl]-4-methyl-phenyl}-3-(3-methoxy-phenyl)-urea], the IC50 in the assay on TNF-α is 0.6 nM; in the assay on IL-1β it was 2 nM.

Regarding `C=CCNC(=O)Nc1ccc(C)c(C(=O)c2ccc(Nc3ccc(F)cc3F)cc2Cl)c1` [Compound 267, 1-Allyl-3-{3-[2-chloro-4-(2,4-difluoro-phenylamino)-benzoyl]-4-methyl-phenyl}-urea], the IC50 came to 0.2 nM with TNF-α and 0.4 nM with IL-1β.

Regarding `Cc1ccc(NC(=O)CCS(C)(=O)=O)cc1C(=O)c1ccc(Nc2ccc(F)cc2F)cc1Cl` [Compound 252, N-{3-[2-Chloro-4-(2,4-difluoro-phenylamino)-benzoyl]-4-methyl-phenyl}-3-methanesulfonyl-propionamide], the IC50 in the assay with TNF-α and with IL-1β was 0.6 nM in each case.

As to `CCOC(=O)CNC(=O)Nc1ccc(C)c(C(=O)c2ccc(Nc3ccc(F)cc3F)cc2Cl)c1` [Compound 261, (3-{3-[2-Chloro-4-(2,4-difluoro-phenylamino)-benzoyl]-4-methyl-phenyl}-ureido)-acetic acid ethyl ester], the IC50 worked out at 1 nM in the assay on TNF-α and 2.2 nM in the assay with IL-1β.

For `Cc1ccc(C(=O)N[C@H]2CC[C@@H](O)CC2)cc1C(=O)c1ccc(Nc2ccc(Cl)cc2F)cc1Cl` [Compound 135, 3-[2-Chloro-4-(4-chloro-2-fluoro-phenylamino)-benzoyl]-N-cis-(4-hydroxy-cyclohexyl)-4-methyl-benzamide], the IC50 in the assay on TNF-α was determined as 2 nM; in the assay with IL-1β it was 4 nM.

`Cc1ccc(C(=O)NCCO)cc1C(=O)c1ccc(Nc2ccccc2)cc1Cl` [Compound 191, 3-(2-Chloro-4-phenylamino-benzoyl)-N-(2-hydroxy-ethyl)-4-methyl-benzamide]: the IC50 in the assay on TNF-α is 0.5 nM; in the assay with IL-1β, 1.1 nM.

`COc1ccc(C(=O)NC(C)(CO)CO)cc1C(=O)c1ccc(Nc2c(F)cccc2F)cc1Cl` [Compound 180, 3-[2-Chloro-4-(2,6-difluoro-phenylamino)-benzoyl]-N-(2-hydroxy-1-hydroxymethyl-1-methyl-ethyl)-4-methoxy-benzamide]: the IC50 in the assay with TNF-α amounted to 3.2 nM; in the assay on IL-1β it was 2.5 nM.

On to `CCC(=O)Nc1ccc(C)c(C(=O)c2ccc(Nc3ccc(F)cc3F)cc2Cl)c1` [Compound 242, N-{3-[2-Chloro-4-(2,4-difluoro-phenylamino)-benzoyl]-4-methyl-phenyl}-propionamide], for which the IC50 was 0.5 nM in the assay on TNF-α and 1.4 nM with IL-1β.

In the case of `COc1ccc(CO)cc1C(=O)c1ccc(Nc2ccc(F)cc2F)cc1Cl` [Compound 335, [2-Chloro-4-(2,4-difluoro-phenylamino)-phenyl]-(5-hydroxymethyl-2-methoxy-phenyl)-methanone], the figures for the IC50 in the assay with TNF-α and in the assay with IL-1β were 2.5 nM and 2.7 nM, respectively.

On to `Cc1ccc(NC(=O)C2CC(=O)NC(=O)N2)cc1C(=O)c1ccc(Nc2ccc(F)cc2F)cc1Cl` (stereo not shown) [Compound 249, 2,6-Dioxo-hexahydro-pyrimidine-4-carboxylic acid {3-[2-chloro-4-(2,4-difluoro-phenylamino)-benzoyl]-4-methyl-phenyl}-amide], for which the IC50 was 1.1 nM with TNF-α and 1.6 nM with IL-1β.

`Cc1ccc(NC(=O)c2ccccc2O)cc1C(=O)c1ccc(Nc2ccc(F)cc2F)cc1Cl` [Compound 247, N-{3-[2-Chloro-4-(2,4-difluoro-phenylamino)-benzoyl]-4-methyl-phenyl}-2-hydroxy-benzamide]: the IC50 came to 1.4 nM in the assay with TNF-α and 5.6 nM with IL-1β.
